Results from patent US8236828B2, “Insecticidal compounds” (Syngenta Crop Protection LLC, priority 2007, dated 2012).

Experiments:
Type in all cases: in vivo
[1] = test system: Spodoptera littoralis (Egyptian Cotton Leafworm); assay: Spodoptera littoralis cotton leaf disc spray test; conditions: same protocol, 200 ppm, 3 DAT
Description: (§1) This Example illustrates the pesticidal/insecticidal properties of compounds of formula (I). Tests were performed as follows:
Spodoptera littoralis (Egyptian Cotton Leafworm):
(§2) • Cotton leaf discs were placed on agar in a 24-well microtiter plate and sprayed with test solutions at an application rate of 200 ppm. After drying, the leaf discs were infested with 5 L1 larvae. The samples were checked for mortality, feeding behaviour, and growth regulation 3 days after treatment (DAT). • The following compounds gave at least 80% control of Spodoptera littoralis: A1, A2, A3, A4, A5, A6, A10, A13, A17, A19. Heliothis virescens (Tobacco Budworm): • Eggs (0-24 h old) were placed in 24-well microtiter plate on artificial diet and treated with test solutions at an application rate of 200 ppm (concentration in well 18 ppm) by pipetting. After an incubation period of 4 days, samples were checked for egg mortality, larval mortality, and growth regulation. • The following compounds gave at least 80% control of Heliothis virescens: A1, A2, A3, A4, A5, A6, A7, A9, A10, A11, A12, A14, A17, A18, A19, A21. Plutella xylostella (Diamond Back Moth): • 24-well microtiter plate (MTP) with artificial diet was treated with test solutions at an application rate of 200 ppm (concentration in well 18 ppm) by pipetting. After drying, the MTP's were infested with L2 larvae (7-12 per well). […]

[2] = test system: Heliothis virescens (Tobacco Budworm); assay: Heliothis virescens egg test on artificial diet; conditions: same protocol, 200 ppm, 4 days
Description: as §1, §2

[3] = test system: Plutella xylostella (Diamond Back Moth); assay: Plutella xylostella larvae test on artificial diet; conditions: same protocol, 200 ppm, 6 days
Description: as §1, §2

[4] = test system: Diabrotica balteata (Corn Root Worm); assay: Diabrotica balteata larvae test on artificial diet; conditions: same protocol, 200 ppm, 5 days

Measured: damage to the test organisms

CSc1cc(C(F)(F)F)ccc1C(=O)Nc1cc(C(=O)Nc2c(C)cc(C3(C(F)(F)F)CC(c4ccc(Cl)cc4)=NO3)cc2C)ccc1C#N (centres unmarked) [A8]
little or no damage: all assays above

COC(=O)c1ccc(C(=O)Nc2cc(C(=O)Nc3c(C)cc(C4(C(F)(F)F)CC(c5ccc(Cl)cc5)=NO4)cc3C)ccc2C#N)cc1 (centres unmarked) [A20]
little or no damage: all assays above
